Experiments:
Conditions in all cases: exposure time 48 h
[1] = test system: Caenorhabditis elegans N2; assay: AC50 for larval growth inhibition (Hill fit); higher = less potent
Outline: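 After 48 h at 20°C in K-medium with killed OP50, 1% DMSO and 0.5–200 µM chemical, synchronised C. elegans N2 L1 larvae (50 per well, 96-well plates) were sized individually as extinction on a COPAS Biosort. These values were log-transformed and averaged per well, and wells with fewer than 10 worms were excluded. The AC50 was derived from a constrained Hill fit by weighted genetic-algorithm regression, and out-of-range values are censored.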

[2] = test system: Caenorhabditis elegans N2; assay: lowest effective concentration for larval growth inhibition (size below effect threshold); higher = less potent
Outline: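 Each well of a 96-well plate received 50 C. elegans N2 L1 larvae, which grew for 48 h at 20°C in K-medium containing killed bacteria, 1% DMSO and the chemical at 0.5, 1, 5, 10, 50, 100 or 200 µM. A Biosort recorded the extinction of every worm as its size, and these readings were log-transformed and averaged per well. The lowest effective concentration is defined as the first dose at which the plate-adjusted mean size falls below the threshold and stays below it at all higher doses; that threshold is 5.665.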

[3] = test system: Caenorhabditis elegans N2; assay: mean nematode size ln(EXT) after 48 h, plate-adjusted (DMSO control set to 6) (ln(EXT), control-adjusted); higher = larger nematodes / less growth inhibition
Outline: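 C. elegans N2 larvae, synchronised at L1, grew for 48 h at 20°C in K-medium with killed OP50, 1% DMSO and 0.5–200 µM chemical. Mean size per well was derived from natural-logged Biosort extinction after a growth model removed debris. Adjustment across plates involved subtracting the vehicle control mean and adding 6.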

Structure (SMILES) | AC50 for larval growth inhibition [1] [µM] | lowest effective concentration [2] [µM] | mean nematode size ln(EXT) (ln) ([3]; 0.5 µM) | mean nematode size ln(EXT) (ln) ([3]; 1 µM) | mean nematode size ln(EXT) (ln) ([3]; 5 µM) | mean nematode size ln(EXT) (ln) ([3]; 10 µM) | mean nematode size ln(EXT) (ln) ([3]; 50 µM) | mean nematode size ln(EXT) (ln) ([3]; 100 µM) | mean nematode size ln(EXT) (ln) ([3]; 200 µM)
O=C1OC(c2ccc(O)cc2)(c2ccc(O)cc2)c2ccccc21 [Phenolphthalein] | > 200 | 200 | 5.87 | 5.86 | 5.87 | 5.87 | 5.78 | 5.84 | 5.55
CC(=O)[O][Hg][c]1ccccc1 [Phenylmercuric acetate] | 1.02 | ≤ 0.5 | 5.43 | 5.07 | 4.25 | 3.93 | 4.09 | 4.09 | 3.02
CCOP(=S)(OCC)SCSCC [Phorate] | > 200 | 100 | 5.9 | 5.87 | 5.8 | 5.76 | 5.68 | 5.55 | 5.21
CCOP(=S)(OCC)SCn1c(=O)oc2cc(Cl)ccc21 [Phosalone] | 9.77 | 10 | 5.76 | 5.7 | 5.97 | 4.73 | 4.26 | 4.06 | 3.72
COP(=S)(OC)SCN1C(=O)c2ccccc2C1=O [Phosmet] | > 200 | 10 | 5.89 | 5.76 | 5.86 | 5.61 | 5.66 | 5.52 | 5.02
CO/C=C(/C(=O)OC)c1ccccc1COc1cccc(C(F)(F)F)n1 [Picoxystrobin] | 48.6 | 50 | 5.95 | 5.83 | 5.92 | 5.89 | 4.97 | 4.26 | 4.61
CCCCOCCOCCOCc1cc2c(cc1CCC)OCO2 [Piperonyl butoxide] | 76.9 | 50 | 5.87 | 5.86 | 5.8 | 5.86 | 5.48 | 5.43 | 5.41
CCN(CC)c1nc(C)cc(OP(=S)(OC)OC)n1 [Pirimiphos-methyl] | 124 | 200 | 5.93 | 5.93 | 5.83 | 5.92 | 6.01 | 6.01 | 4.12
O=S(=O)(O)C(F)(F)C(F)(F)C(F)(F)C(F)(F)C(F)(F)C(F)(F)F [Potassium perfluorohexanesulfonate] | > 200 | 100 | 5.85 | 5.87 | 5.87 | 5.85 | 5.76 | 5.55 | 5.31
C#CCC1=C(C)C(OC(=O)C2C(C=C(C)C)C2(C)C)CC1=O (stereo not drawn) [Prallethrin] | 188 | 200 | 5.85 | 6.08 | 6.07 | 6.04 | 5.94 | 6.04 | 4.41
C[C@]12C=CC(=O)C=C1CC[C@@H]1[C@@H]2C(=O)C[C@@]2(C)[C@H]1CC[C@]2(O)C(=O)CO [Prednisone] | 52.4 | 100 | 6.09 | 5.82 | 5.85 | 5.87 | 5.86 | 5.47 | 5.62
CCCN(CCOc1c(Cl)cc(Cl)cc1Cl)C(=O)n1ccnc1 [Prochloraz] | 153 | 200 | 6.11 | 6.19 | 6.19 | 6.29 | 5.98 | 5.98 | 3.41
CCCN(CCC)c1c([N+](=O)[O-])cc(C(F)(F)F)c(N)c1[N+](=O)[O-] [Prodiamine] | > 200 | 200 | 6.07 | 6.18 | 6.02 | 5.75 | 5.99 | 5.92 | 5.1
CCCSP(=O)(OCC)Oc1ccc(Br)cc1Cl (stereo not drawn) [Profenofos] | 56.4 | 50 | 5.75 | 6.26 | 6.17 | 6.04 | 4.95 | 3.31 | 3.04
CC(=O)[C@H]1CC[C@H]2[C@@H]3CCC4=CC(=O)CC[C@]4(C)[C@H]3CC[C@]12C [Progesterone] | > 200 | 200 | 5.84 | 5.84 | 5.86 | 5.9 | 5.72 | 5.95 | 5.58
COc1nc(NC(C)C)nc(NC(C)C)n1 [Prometon] | > 200 | 100 | 5.72 | 5.83 | 5.84 | 5.75 | 5.87 | 5.61 | 5.53
CSc1nc(NC(C)C)nc(NC(C)C)n1 [Prometryn] | > 200 | 200 | 5.83 | 5.76 | 5.87 | 6 | 5.79 | 5.86 | 5.37
CCC(=O)Nc1ccc(Cl)c(Cl)c1 [Propanil] | > 200 | 200 | 5.8 | 5.75 | 5.7 | 5.93 | 6 | 5.96 | 5.04
COCC(C)OCC(C)O (stereo not drawn) [Propanol, 1 (or 2)-(2-methoxymethylethyoxy)-] | > 200 | 200 | 5.9 | 5.9 | 5.88 | 5.85 | 5.92 | 5.82 | 5.66

Structure (SMILES) | AC50 for larval growth inhibition [1] [µM] | lowest effective concentration [2] [µM] | mean nematode size ln(EXT) (ln) ([3]; 0.5 µM) | mean nematode size ln(EXT) (ln) ([3]; 1 µM) | mean nematode size ln(EXT) (ln) ([3]; 5 µM) | mean nematode size ln(EXT) (ln) ([3]; 10 µM) | mean nematode size ln(EXT) (ln) ([3]; 50 µM) | mean nematode size ln(EXT) (ln) ([3]; 100 µM) | mean nematode size ln(EXT) (ln) ([3]; 200 µM)
C#CCOS(=O)OC1CCCCC1Oc1ccc(C(C)(C)C)cc1 (stereo not drawn) [Propargite] | 150 | 200 | 5.95 | 6.19 | 5.99 | 6.05 | 5.82 | 5.88 | 3.35
CC(C)Nc1nc(Cl)nc(NC(C)C)n1 [Propazine] | 102 | 200 | 5.99 | 6.05 | 6.03 | 6.09 | 6.04 | 5.83 | 5.55
CCNP(=S)(OC)O/C(C)=C/C(=O)OC(C)C (stereo not drawn) [Propetamphos] | > 200 | 50 | 5.88 | 5.88 | 5.75 | 5.71 | 4.95 | 5.45 | 3.98
CCCC1COC(Cn2cncn2)(c2ccc(Cl)cc2Cl)O1 (stereo not drawn) [Propiconazole] | > 200 | 200 | 6.02 | 6.09 | 6.16 | 6.21 | 5.95 | 5.93 | 5.05
CCCOc1nn(C(=O)NS(=O)(=O)c2ccccc2C(=O)OC)c(=O)n1C [Propoxycarbazone-sodium] | > 200 | 200 | 5.79 | 5.97 | 6.22 | 6.16 | 5.99 | 5.96 | 5.38
CCCOC(=O)c1cc(O)c(O)c(O)c1 [Propyl gallate] | 126 | 200 | 5.91 | 5.94 | 6.05 | 5.78 | 5.95 | 5.81 | 5.54
C#CC(C)(C)NC(=O)c1cc(Cl)cc(Cl)c1 [Propyzamide] | > 200 | 200 | 5.98 | 5.91 | 5.98 | 6.01 | 5.92 | 5.91 | 5.63
COC(=O)N(OC)c1ccccc1COc1ccn(-c2ccc(Cl)cc2)n1 [Pyraclostrobin] | 97.6 | 50 | 6 | 5.89 | 5.83 | 5.89 | 5.21 | 4.93 | 4.43
c1cc2ccc3cccc4ccc(c1)c2c34 [Pyrene] | 4.29 | 1 | 5.71 | 5.58 | 4.64 | 4.52 | 4.28 | 4.05 | 3.59
CC(C)(C)c1ccc(CSc2cnn(C(C)(C)C)c(=O)c2Cl)cc1 [Pyridaben] | < 0.5 | ≤ 0.5 | 4.73 | 4.44 | 4.31 | 4.22 | 4.14 | 3.92 | 3.87
Cc1ncc(CO)c(CO)c1O [Pyridoxine] | > 200 | 200 | 5.84 | 5.88 | 5.86 | 5.83 | 5.87 | 5.92 | 5.63
CCc1nc(N)nc(N)c1-c1ccc(Cl)cc1 [Pyrimethamine] | > 200 | 50 | 5.86 | 5.91 | 6.02 | 5.67 | 5.66 | 5.43 | 4.91
Cc1cc(C)nc(Nc2ccccc2)n1 [Pyrimethanil] | 184 | 200 | 6 | 5.86 | 5.84 | 5.84 | 5.68 | 6.12 | 5.4
CC(COc1ccc(Oc2ccccc2)cc1)Oc1ccccn1 (stereo not drawn) [Pyriproxyfen] | 1.37 | ≤ 0.5 | 5.55 | 5.44 | 5.14 | 4.87 | 4.84 | 4.7 | 4.81
Fc1ccc(Oc2ccnc3cc(Cl)cc(Cl)c23)cc1 [Quinoxyfen] | 1.53 | ≤ 0.5 | 4.9 | 5.31 | 4.26 | 4.2 | 3.97 | 4 | 3.68
O=[N+]([O-])c1c(Cl)c(Cl)c(Cl)c(Cl)c1Cl [Quintozene] | 194 | 200 | 5.85 | 5.74 | 5.72 | 5.88 | 5.93 | 5.94 | 5.11
CCOC(=O)C(C)Oc1ccc(Oc2cnc3cc(Cl)ccc3n2)cc1 (stereo not drawn) [Quizalofop-ethyl] | 84.1 | 50 | 5.77 | 5.9 | 5.82 | 5.91 | 5.33 | 4.78 | 4.4
COC(=O)[C@H]1[C@H]2C[C@@H]3c4[nH]c5cc(OC)ccc5c4CCN3C[C@H]2C[C@@H](OC(=O)c2cc(OC)c(OC)c(OC)c2)[C@@H]1OC [Reserpine] | 12.6 | 10 | 5.86 | 5.87 | 5.74 | 5.66 | 5.04 | 4.95 | 5.17

Reference: the supplement of paper PMC4858399
